Experimental data from US20050209278A1, “Piperidinyl- and piperazinyl-sulfonylmethyl hydroxamic acids and their use as protease inhibitors” (priority 2002, published 2005).
“And” between values parts separate entries of the source, which are not always exact repeats. Equal entries are not always repeated.

Tests used:
[1] = target: T1, MMP-2 (Homo sapiens, UniProt P08253); assay: In vitro MMP inhibition, Ki determination (fluorogenic substrate II); assay type: biochemical; settings: value outside parentheses; read-out: MMP-2 Ki
T1 construct: made in house; host or cells: MMP-2-transfected p2AHT2 cells
T1 sequence (P08253 110-660): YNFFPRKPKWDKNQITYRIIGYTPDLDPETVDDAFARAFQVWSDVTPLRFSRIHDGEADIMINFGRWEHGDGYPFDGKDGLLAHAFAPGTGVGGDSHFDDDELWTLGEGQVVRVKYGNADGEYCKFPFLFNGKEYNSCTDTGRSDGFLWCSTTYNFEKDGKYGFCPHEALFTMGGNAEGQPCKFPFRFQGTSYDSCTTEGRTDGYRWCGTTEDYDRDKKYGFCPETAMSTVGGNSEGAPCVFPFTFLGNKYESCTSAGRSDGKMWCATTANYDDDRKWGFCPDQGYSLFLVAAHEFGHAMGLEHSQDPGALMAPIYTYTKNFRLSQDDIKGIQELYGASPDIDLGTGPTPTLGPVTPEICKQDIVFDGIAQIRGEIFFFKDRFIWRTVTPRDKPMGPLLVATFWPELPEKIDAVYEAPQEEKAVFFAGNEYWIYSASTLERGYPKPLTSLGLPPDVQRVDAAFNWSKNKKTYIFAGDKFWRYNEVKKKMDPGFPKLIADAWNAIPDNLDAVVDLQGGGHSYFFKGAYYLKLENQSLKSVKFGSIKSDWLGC

[2] = target: T2, MMP-9 (Homo sapiens, UniProt P14780); assay: as above; assay type: biochemical; settings: value outside parentheses
T2 construct: made in house; host or cells: MMP-9-transfected HT1080 cells (spent media)
T2 sequence (P14780 107-707 limits assumed): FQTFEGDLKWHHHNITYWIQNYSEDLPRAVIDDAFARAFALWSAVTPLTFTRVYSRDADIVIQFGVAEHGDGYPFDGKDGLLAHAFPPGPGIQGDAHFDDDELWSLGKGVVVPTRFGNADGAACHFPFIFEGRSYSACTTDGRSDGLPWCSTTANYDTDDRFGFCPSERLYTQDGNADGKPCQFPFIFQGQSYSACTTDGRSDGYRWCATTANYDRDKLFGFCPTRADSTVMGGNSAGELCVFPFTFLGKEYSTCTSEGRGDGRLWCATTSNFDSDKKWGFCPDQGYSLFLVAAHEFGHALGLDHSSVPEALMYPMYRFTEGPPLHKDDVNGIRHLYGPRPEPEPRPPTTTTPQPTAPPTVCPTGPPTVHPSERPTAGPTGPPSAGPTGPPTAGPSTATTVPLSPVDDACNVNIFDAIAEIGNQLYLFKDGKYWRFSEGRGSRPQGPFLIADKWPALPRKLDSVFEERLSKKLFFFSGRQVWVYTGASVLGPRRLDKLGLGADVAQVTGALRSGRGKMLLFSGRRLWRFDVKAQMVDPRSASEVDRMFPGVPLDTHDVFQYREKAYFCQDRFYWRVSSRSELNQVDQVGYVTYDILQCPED
In short: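 HT1080-derived MMP-9, activated with APMA, trypsin or MMP-3, incubated 1 hr at room temperature with inhibitor and 4 μM fluorogenic substrate II (at or below Km) in pH 7.5 Tris/NaCl/CaCl2 buffer; ex 330/em 420 nm. Ki from Morrison-equation regression, without substrate correction.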

Compound | Ki [1] | Ki [2]
O=C(NO)C1(S(=O)(=O)N2CCN(c3ccc(-c4ccccc4)cn3)CC2)CCOCC1 [Example 372] | 0.451 nM and 0.479 nM | 0.665 nM and 0.75 nM
O=C(NO)C1(S(=O)(=O)N2CCC(COCc3ccccc3)CC2)CCOCC1 [Example 373] | 6.12 nM | 7.65 nM
CCC=C1CCN(S(=O)(=O)C2(C(=O)NO)CCOCC2)CC1 [Example 374] | 18.6 nM | 219 nM
O=C(NO)C1(S(=O)(=O)N2CCC(COCC(F)(F)C(F)F)CC2)CCOCC1 [Example 375] | 44.1 nM | 105 nM
O=C(NO)C1(S(=O)(=O)N2CCC(COCC(F)(F)C(F)(F)F)CC2)CCOCC1 [Example 376] | 27.1 nM | 114 nM
O=C(NO)C1(S(=O)(=O)N2CCC(COCC(F)(F)C(F)(F)C(F)(F)F)CC2)CCOCC1 [Example 377] | 37.5 nM | 174 nM
O=C(NO)C1(S(=O)(=O)N2CCC(COCC(F)(F)C(F)(F)C(F)(F)C(F)F)CC2)CCOCC1 [Example 378] | 24.8 nM | 219 nM
CCCCc1ccc(-c2cnc(N3CCN(S(=O)(=O)C4(C(=O)NO)CCOCC4)CC3)s2)cc1 [Example 379] | 0.14 nM | 3.97 nM
CCCCCc1ccc(-c2cnc(N3CCN(S(=O)(=O)C4(C(=O)NO)CCOCC4)CC3)s2)cc1 [Example 380] | 1.39 nM | 16.2 nM
CCc1ccc(-c2cnc(N3CCN(S(=O)(=O)C4(C(=O)NO)CCOCC4)CC3)s2)cc1 [Example 381] | 0.209 nM | 1.03 nM
O=C(NO)C1(S(=O)(=O)N2CCN(c3ncc(-c4cccnc4)s3)CC2)CCOCC1 [Example 382] | 0.68 nM | 4.26 nM
NC(=O)c1ccccc1-c1cnc(N2CCN(S(=O)(=O)C3(C(=O)NO)CCOCC3)CC2)s1 [Example 383] | 1230 nM | 9520 nM
N#Cc1cccc(-c2cnc(N3CCN(S(=O)(=O)C4(C(=O)NO)CCOCC4)CC3)s2)c1 [Example 384] | 0.185 nM | 6.4 nM
O=C(NO)C1(S(=O)(=O)N2CCC(c3ccc(OCC(F)(F)C(F)F)cc3)CC2)CCN(CCN2CCOCC2)CC1 [Example 385] | 0.573 nM | 0.829 nM
O=C(NO)C1(S(=O)(=O)N2CCN(c3ccc(CCCC(F)(F)F)cc3F)CC2)CCOCC1 [Example 386] | 4.88 nM | 4.9 nM
O=C(NO)C1(S(=O)(=O)N2CCN(c3ncc(-c4ccccn4)s3)CC2)CCOCC1 [Example 387] | 6.71 nM | 34.6 nM
CCCCc1ccc(C2CCN(S(=O)(=O)C3(C(=O)NO)CCNCC3)CC2)nc1 [Example 388] | 11.2 nM | 2.3 nM
O=C(NO)C1(S(=O)(=O)N2CCN(c3ccc(CCCC(F)(F)F)c(F)c3)CC2)CCOCC1 [Example 389] | 0.38 nM | 1.34 nM
O=C(NO)C1(S(=O)(=O)N2CCC(c3ccc(-c4cccnc4)cn3)CC2)CCOCC1 [Example 390] | 12.3 nM | 53.2 nM
O=C(NO)C1(S(=O)(=O)N2CCC(c3ccc(-c4ccccc4)cn3)CC2)CCOCC1 [Example 392] | 4.02 nM | 2.33 nM
O=C(NO)C1(S(=O)(=O)N2CCC(c3ccc(-c4cccs4)cn3)CC2)CCOCC1 [Example 394] | 1.8 nM | 1.52 nM
O=C(NO)C1(S(=O)(=O)N2CCC(c3ccc(-c4ccc(C(F)(F)F)cc4)cn3)CC2)CCOCC1 [Example 395] | 7.17 nM | 29.4 nM
CCCCc1ccc(C2CCN(S(=O)(=O)C3(C(=O)NO)CCN(CC)CC3)CC2)nc1 [Example 396] | 2.32 nM | 0.39 nM
